Reference: patent US20230337677A1, “ARYL AND PYRIDYL AMIDE PESTICIDES AND COMPOSITIONS THEREOF” (University of Florida Research Foundation, Incorporated, priority 2019, published 2023)

Tests used:
[1] = test system: Aedes aegypti mosquitoes, pyrethroid-resistant Puerto Rico strain; assay: Vapor repellency glass tube assay (1 h), resistant strain; assay type: in vivo; details: with resistance ratio (PR)
[2] = test system: Aedes aegypti mosquitoes, insecticide-susceptible Orlando strain; assay type: in vivo; details: for 1 h Repellency EC50, μg/cm^2: (OR); for 1 h % Repellency, 100 μg/cm^2: screened at 100 μg/cm^2, strain not given
How it was run: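 Sixteen female mosquitoes per glass tube facing netting-shielded filter paper treated with acetone solutions (30-0.01 μg/ml; screen at 100 μg/cm^2), no contact. Proportion on treated side scored up to 60 min, then flight-out checked 30 min; mortality after 24 hr constant exposure.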

[3] = test system: Anopheles gambiae Akron kdr (Akdr) strain, resistant to pyrethroids; assay: Topical toxicity (24 hour mortality), An. gambiae Akdr; assay type: in vivo; details: for An. gambiae RR (resistance ratio): 24 h LD50 resistant strain (AKDR)/24 h LD50 susceptible strain (G3); for An. gambiae AKDR LD50: topical application, 24 h mortality, female adults, pyrethroid-resistant Akdr strain
How it was run: (§1)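 Females aged 3–6 days received 200 nL of compound in ethanol topically on the thorax, 10 per concentration per replicate, and were kept at 28° C with sugar water.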

[4] = test system: Aedes aegypti strain Puerto Rico (PR, resistant to permethrin); assay: Topical toxicity (24 hour mortality), Ae. aegypti Puerto Rico; assay type: in vivo; details: for Ae. aegypti RR (resistance ratio): 24 h LD50 resistant strain (PR)/24 h LD50 susceptible strain (OR); for Ae. aegypti PR LD50: topical application, 24 h mortality, female adults, permethrin-resistant Puerto Rico strain
Procedure: (§2) The Aedes aegypti strains Orlando (sensitive) as well as the Puerto Rico (PR, resistant to permethrin) were used. The Anopheles gambiae (G3 sensitive strain, as well as Akron kdr (Akdr) strain, resistant to pyrethroids were also assessed. The larvae were provided by the USDA, Gainesville Fl, and raised in a pan with tap water maintained at 28° C. Larvae were fed a ground liver and yeast mixture, and pupae were placed in emergence cages. Adults were held at 28° C. and provided with cotton balls soaked in 10% sugar water for rearing and for all bioassays.
(§3) Female adults from 3 to 6 days were used for the experiments. The drug was dissolved in ethanol and then applied with a micro-applicator on the thorax, between the legs: 200 nL of drug per female mosquito, with different concentrations of the drug; 10 mosquitos were treated together per concentration per replicate, and put together in a small container with free access to sweet water. Mortality, i.e. no visible movement, was assessed 24 hours after treatment. Every compound was assessed on at least 3 different cohorts of mosquitoes, and the LD50 values and slopes were determined with Probit analysis, corrected with Abbott's formula.

[5] = test system: Aedes aegypti mosquitoes, insecticide-susceptible Orlando strain; assay: whole plant or invertebrate; details: 24 h; for mortality at 100 µg/cm2: read-out: 24 h % Mortality, 100 μg/cm^2
[6] = test system: Aedes aegypti strain Orlando (sensitive); assay: Topical toxicity (24 hour mortality), Ae. aegypti Orlando; assay type: in vivo; details: topical application, 24 h mortality, female adults, susceptible Orlando strain
How it was run: as §1

[7] = test system: Anopheles gambiae G3 sensitive strain; assay: Topical toxicity (24 hour mortality), An. gambiae G3; assay type: in vivo; details: topical application, 24 h mortality, female adults, susceptible strain G3
How it was run: as §1

[8] = test system: Aedes aegypti mosquitoes, insecticide-susceptible Orlando strain; details: for 24 h LC50, μg/cm^2: LC50 (OR)
[9] = test system: Aedes aegypti and Anopheles gambiae female adults; assay: Analysis of topical toxicity (statements in words, species not given); assay type: in vivo; details: structure-activity analysis of Table 4
Procedure: as §2
as §3, with “formula. […]” for “formula.”

Structure (SMILES) | An. gambiae RR (resistance ratio) [3] | An. gambiae AKDR LD50 [3] | Ae. aegypti RR (resistance ratio) [4] | Ae. aegypti OR LD50 [6] | An. gambiae G3 LD50 [7] | topical toxicity, statement in words (Example 10) [9] | further results
CCN(CC)C(=O)c1cccc(C)c1 [DEET, N,N-diethyl-m-toluamide, reference compound] | – | – | – | – | – | – | 1 h Repellency EC50, μg/cm^2 (RR) [1]: 79 μg/cm^2; 1 h Repellency EC50, μg/cm^2 ([2]; 1 h): 35 μg/cm^2; response in glass tube assay (FIG. 1) ([2]; representative response, in words): Mosquitoes moved away from the DEET treated side
O=C(Nc1cc(Cl)nc(Cl)c1)C(F)F [GMR028] | 0.7 | 28.2 ng/mg | 3.2 | 266 ng/mg | 43.1 ng/mg | – | Ae. aegypti PR LD50 [4]: 854 ng/mg; mortality at 100 µg/cm2 [5]: 59%; 1 h % Repellency, 100 μg/cm^2 ([2]; 1 h): 12%
O=C(Nc1cc(Cl)nc(Cl)c1)C(F)(F)F [GMR029] | 1.6 | 45.3 ng/mg | 1.3 | 190 ng/mg | 27.9 ng/mg | – | Ae. aegypti PR LD50 [4]: 238 ng/mg; mortality at 100 µg/cm2 [5]: 24%; 1 h % Repellency, 100 μg/cm^2 ([2]; 1 h): 42%; 24 h LC50, μg/cm^2 [8]: 181 μg/cm^2
O=C(Nc1cc(Cl)nc(Cl)c1)C(F)(F)C(F)(F)F [GMR030] | 1.5 | 14.2 ng/mg | 1.0 | 49 ng/mg | 9.6 ng/mg | – | Ae. aegypti PR LD50 [4]: 50 ng/mg; mortality at 100 µg/cm2 [5]: 85%; 1 h % Repellency, 100 μg/cm^2 ([2]; 1 h): 28%; 24 h LC50, μg/cm^2 [8]: 35 μg/cm^2
CCOC(=O)Nc1cc(Cl)nc(Cl)c1 [GMR032] | 3.6 | 66.0 ng/mg | – | 892 ng/mg | 18.3 ng/mg | promising activity | –
CC(C)(C)OC(=O)Nc1cc(Cl)nc(Cl)c1 [GMR033] | 2.2 | 46.7 ng/mg | – | 1199 ng/mg | 21.4 ng/mg | promising activity | –
O=C(Nc1cc(Cl)nc(Cl)c1)C(F)(C(F)(F)F)C(F)(F)F [GMR053] | 0.5 | 2.7 ng/mg | 0.4 | 17 ng/mg | 5.8 ng/mg | retained high mortality | Ae. aegypti PR LD50 [4]: 7.10 ng/mg
CCCCCC(=O)Nc1cc(Cl)nc(Cl)c1 [GMR054] | – | >100 ng/mg | – | >3000 ng/mg | >100 ng/mg | reduced activity | –
O=C(Nc1cc(Cl)nc(C(F)(F)F)c1)C(F)(F)C(F)(F)C(F)(F)C(F)(F)C(F)(F)F [GMR055] | 0.4 | 4.0 ng/mg | 0.6 | 10.5 ng/mg | 11.0 ng/mg | – | Ae. aegypti PR LD50 [4]: 5.90 ng/mg
O=C(Nc1cc(Br)nc(Br)c1)C(F)(F)C(F)(F)C(F)(F)C(F)(F)C(F)(F)F [GMR056] | 0.4 | 3.2 ng/mg | 0.8 | 15 ng/mg | 8.6 ng/mg | – | Ae. aegypti PR LD50 [4]: 12.10 ng/mg
O=C(Nc1c(F)c(F)nc(F)c1F)C(F)(F)C(F)(F)C(F)(F)C(F)(F)C(F)(F)F [GMR057] | 0.6 | 15.7 ng/mg | 0.4 | 20 ng/mg | 28.4 ng/mg | – | Ae. aegypti PR LD50 [4]: 8.90 ng/mg
CCCCCC(=O)Nc1cc(Cl)nc(C(F)(F)F)c1 [GMR067] | – | 3506 ng/mg | – | 3506 ng/mg | – | reduced activity | –
CC(F)(F)C1(C(=O)Nc2cc(Cl)nc(Cl)c2)CC1 [GMR076] | – | >100 ng/mg | – | 719 ng/mg | – | reduced toxicity | –
O=C(Nc1cc(Cl)nc(Cl)c1)C(F)(F)C(F)(F)C(F)(F)C(F)(F)C(=O)Nc1cc(Cl)nc(Cl)c1 [GMR077] | – | >100 ng/mg | – | 5373 ng/mg | – | reduced activity | –
C#C[C@@H]1[C@@H](C(=O)Nc2cc(Cl)nc(Cl)c2)C1(C)C [GMR086] | – | >50 ng/mg | – | >6000 ng/mg | >50 ng/mg | reduced toxicity | –
O=C(Nc1cc(Cl)nc(Cl)c1)c1c(F)c(F)c(F)c(F)c1F [GMR089] | – | >100 ng/mg | – | >6000 ng/mg | >100 ng/mg | reduction in toxicity | –
O=C(Nc1cc(Cl)nc(C(F)(F)F)c1)C(F)(C(F)(F)F)C(F)(F)F [GMR092, N-(2-chloro-6-(trifluoromethyl)pyridin-4-yl)-2,3,3,3-tetrafluoro-2-(trifluoromethyl)propanamide] | 0.3 | 3.30 ng/mg | – | 8.8 ng/mg | 9.60 ng/mg | retained high mortality | –
CN(C(=O)C(F)(F)C(F)(F)C(F)(F)F)c1cc(Cl)nc(Cl)c1 [GMR095] | 0.6 | 775.00 ng/mg | – | 1576 ng/mg | 1300.00 ng/mg | – | mortality at 100 µg/cm2 [5]: 100%; 1 h Repellency EC50, μg/cm^2 ([2]; 1 h): 10 μg/cm^2; 1 h % Repellency, 100 μg/cm^2 ([2]; 1 h): 84%; 24 h LC50, μg/cm^2 [8]: 14 μg/cm^2
C/C=C\C[C@H]1C(=O)CC[C@@H]1CC(=O)Nc1cc(F)c(F)c(F)c1 [GMR098] | – | >1000 ng/mg | – | >6000 ng/mg | >1000 ng/mg | reduced toxicity | 1 h % Repellency, 100 μg/cm^2 ([2]; 1 h): 18%; 24 h % Mortality, 100 μg/cm^2 ([8]; in vivo): 0%
O=C(Nc1cc(F)c(F)c(F)c1)C(F)(F)C(F)(F)OC(F)(F)F [GMR100] | – | >1000 ng/mg | – | 2374 ng/mg | >1000 ng/mg | – | mortality at 10 µg/cm2 ([5]; read-out: 24 h % Mortality): 21%; 1 h Repellency EC50, μg/cm^2 ([2]; 1 h): 3 μg/cm^2; knockdown in 1 hr repellency test (XXkd) ([2]; screened at 10 μg/cm^2, 1 h, out of 16 females): 10; 24 h LC50, μg/cm^2 [8]: 15 μg/cm^2
O=C(NC(=O)c1cc(Cl)nc(Cl)c1)c1cc(Cl)nc(Cl)c1 [GMR117] | – | – | – | >1500 ng/mg | – | reduced activity | mortality at 100 µg/cm2 [5]: 100%; 1 h % Repellency, 100 μg/cm^2 ([2]; 1 h): 62%; vapor repellency / mortality, statement in words (Example 8) ([2]; structure-activity analysis of Table 2): some repellency and mortality
O=C(Nc1c(Cl)cc(C(F)(F)F)cc1Cl)C(F)(F)C(F)(F)F [GMR138, N-(2,6-dichloro-4-(trifluoromethyl)phenyl)-2,2,3,3,3-pentafluoropropanamide] | 0.8 | 90.00 ng/mg | – | 57.6 ng/mg | 120.00 ng/mg | – | mortality at 100 µg/cm2 [5]: 100%; 1 h Repellency EC50, μg/cm^2 ([2]; 1 h): 5.3 μg/cm^2; 1 h % Repellency, 100 μg/cm^2 ([2]; 1 h): 66%; 24 h LC50, μg/cm^2 [8]: 0.3 μg/cm^2
O=C(Nc1cc(Cl)nc(Cl)c1)C(F)(F)Sc1ccc(F)cc1 [GMR147] | – | – | – | 1983 ng/mg | – | reduction in toxicity | –
CNC(=O)Oc1ccccc1OC(C)C [Propoxur] | 63 | 201 ng/mg | 0.0 | 3.0 ng/mg | 3.2 ng/mg | – | –
